Assay results: PubChem BioAssay (NCI)
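Test compounds were applied to cells in 96-well plates for 48 hours at 5 doses. Abbreviation: GI50, concentration required for 50% inhibition of growth. TGI is the concentration that stops growth completely.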

How the values were obtained:
Assay in all cases: NCI anticancer screen, dose series, 48 h
NCI-H460 lung = test system: NCI-H460 lung
T-47D breast = test system: T-47D breast
KM12 colon = test system: KM12 colon
HL-60(TB) leukemia = test system: HL-60(TB) leukemia
MDA-MB-231 breast = test system: MDA-MB-231 breast
COLO 205 colon = test system: COLO 205 colon
SN12C renal = test system: SN12C renal
CCRF-CEM leukemia = test system: CCRF-CEM leukemia
RXF 393 renal = test system: RXF 393 renal
OVCAR-3 ovarian = test system: OVCAR-3 ovarian

Row | Compound | TGI (NCI-H460 lung) | TGI (T-47D breast) | TGI (KM12 colon) | TGI (HL-60(TB) leukemia) | TGI (MDA-MB-231 breast) | TGI (COLO 205 colon) | TGI (SN12C renal) | TGI (CCRF-CEM leukemia) | TGI (RXF 393 renal) | TGI (OVCAR-3 ovarian) | GI50 (NCI-H460 lung) | GI50 (T-47D breast) | GI50 (KM12 colon) | GI50 (HL-60(TB) leukemia) | GI50 (MDA-MB-231 breast) | GI50 (COLO 205 colon) | GI50 (SN12C renal) | GI50 (CCRF-CEM leukemia) | GI50 (RXF 393 renal) | GI50 (OVCAR-3 ovarian)
1 | c1ccc(-c2nc(-c3ccccc3)c(-c3ccccc3)[nH]2)cc1 | > 100 µM | > 100 µM | > 100 µM | 36.9 µM | > 100 µM | > 100 µM | > 100 µM | 36.5 µM | > 100 µM | > 100 µM |  |  |  |  |  |  |  |  |  | 
2 | C=C1C(=O)O[C@H]2[C@H]1CC/C(COC(=O)CSCC(=O)OC/C1=C/CC[C@@]3(C)O[C@H]3[C@H]3OC(=O)C(=C)[C@@H]3CC1)=C\CC[C@@]1(C)O[C@@H]21 | 4.91 µM | 5.72 µM | 8.75 µM | 2.07 µM | 3.34 µM | 2.44 µM | 3.54 µM | 1.25 µM | 1.52 µM | 2.12 µM | 2.16 µM | 2.16 µM | 2.59 µM | 0.432 µM | 1.63 µM | 0.887 µM | 1.6 µM | 0.268 µM | 0.416 µM | 0.832 µM
3 | C=CCC1(O)c2cccc(NCCO)c2C(=O)c2c(NCCO)cccc21 | > 100 µM | > 100 µM | > 100 µM | > 100 µM | > 100 µM | > 100 µM | > 100 µM | > 100 µM | > 100 µM | > 100 µM | > 100 µM | > 100 µM | > 100 µM | > 100 µM | > 100 µM | > 100 µM | > 100 µM | > 100 µM | > 100 µM | > 100 µM
4 | NS(=O)(=O)c1cccc(N=Cc2c(O)[nH]c3ccccc23)c1 | > 25 µM | > 25 µM | > 25 µM | > 25 µM | > 25 µM | > 25 µM | > 25 µM | > 25 µM | > 25 µM | > 25 µM | > 25 µM | > 25 µM | 8.04 µM | > 25 µM | > 25 µM | > 25 µM | > 25 µM | > 25 µM | > 25 µM | > 25 µM
5 | O=C(O)c1cc(N=Cc2ccccc2O)cc(C(=O)O)c1 | > 100 µM | > 100 µM | > 100 µM | > 100 µM | > 100 µM | > 100 µM | > 100 µM | > 100 µM | > 100 µM | > 100 µM |  |  |  |  |  |  |  |  |  | 
6 | C=C(c1ccc(C(=O)N(C)c2ccccc2N)cc1)C(C)N1C(=O)[C@H]2CCCN2C(=O)c2ccccc21 (stereo not given in full) | > 100 µM | 90.5 µM | > 100 µM | 80.2 µM | > 100 µM | > 100 µM | > 100 µM | > 100 µM | > 100 µM | > 100 µM | 32.1 µM | 16.5 µM | > 100 µM | 20.2 µM | 58.5 µM | 24 µM | 26.4 µM | 27.4 µM | > 100 µM | 82 µM
7 | COc1ccc(C(=O)c2cc3c(OC)c(OC)c(OC)cc3[nH]2)cc1 | > 100 µM | > 100 µM | > 100 µM | 61.8 µM | > 100 µM | > 100 µM | > 100 µM | > 100 µM | 95.7 µM | > 100 µM | 3.26 µM | 4.53 µM | 2.36 µM | 2.24 µM | 4.96 µM | 3.45 µM | 5.21 µM | 5.27 µM | 10.2 µM | 9.07 µM
8 | Cc1c2c[n+](C(C)C)ccc2c(C)c2c1[nH]c1ccccc12 | 10.9 µM | 6.64 µM | 10.9 µM | 19.2 µM | 43 µM | 6.46 µM | 11.8 µM | 38.7 µM | > 100 µM | 12.2 µM | 2.44 µM | 1.48 µM | 1.14 µM | 3.13 µM | 4.86 µM | 1.77 µM | 0.32 µM | 3.97 µM | 6.19 µM | 2.61 µM
9 | C#Cc1c(C(N)=O)ncn1C1OC(COP(=O)(OCc2ccc([N+](=O)[O-])o2)N(C)CCCCCl)C(O)C1O (stereo not given) | > 100 µM | > 100 µM | > 100 µM | > 100 µM | > 100 µM | 88.2 µM | > 100 µM | > 100 µM | > 100 µM | 63.5 µM | 34.1 µM | 12.7 µM | 42.7 µM | > 100 µM | > 100 µM | 5.5 µM | 48.3 µM | 21.9 µM | > 100 µM | 15.1 µM
10 | COc1ccc2c(c1)C(=O)/C(=C/c1ncc([N+](=O)[O-])n1C)O2 | 7.38 µM | > 100 µM | 0.973 µM | 1.37 µM | 0.826 µM | 3.9 µM | 1.3 µM | 0.622 µM | 3.03 µM | 5.11 µM | 0.934 µM | 4.2 µM | 0.279 µM | 0.263 µM | 0.299 µM | 1.07 µM | 0.292 µM | 0.141 µM | 1.01 µM | 1.3 µM
11 | CC(=O)O/N=C1/C(c2c(O)[nH]c3cc(Br)ccc23)=Nc2ccccc21 | 3.33 µM | 7.82 µM | 1.91 µM | 4.37 µM | 3.77 µM | 3 µM | 2.58 µM | 5.37 µM | 1.61 µM | 2.14 µM | 1.24 µM | 2.59 µM | 0.398 µM | 1.88 µM | 1.53 µM | 1.57 µM | 0.873 µM | 1.38 µM | 0.385 µM | 0.771 µM
12 | CCCCCCCCCCCCSC(=N)N | 13.4 µM | 4.34 µM | 11.3 µM | 4.27 µM | 8.28 µM | 3.72 µM | 21.4 µM | 26.1 µM | 26.6 µM | 26.2 µM | 3.42 µM | 2.03 µM | 3.33 µM | 2.02 µM | 2.03 µM | 1.98 µM | 8.21 µM | 8.4 µM | 6.64 µM | 10.3 µM
